Laboratory results from ChEMBL document CHEMBL1201862, “PubChem BioAssay data set” (2004).
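Test compounds were applied to cells in 96-well plates for 48 hours at 5 doses. The concentration for 50% growth inhibition is given as GI50.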 The source made the active and inactive calls. No stated cut-off is given here; in the data, active = GI50 up to about 1.1 µM and inactive = higher.

Experiments:
Assay in all cases: NCI anticancer screen, dose series, 48 h
ACHN = tested on: ACHN
A549 = tested on: A549
BT-549 = tested on: BT-549
COLO 205 = tested on: COLO 205
MDA-MB-435 = tested on: MDA-MB-435
PC-3 = tested on: PC-3
HCT-116 = tested on: HCT-116
UACC-257 = tested on: UACC-257
SK-OV-3 = tested on: SK-OV-3
HL-60 = tested on: HL-60
Malme-3M = tested on: Malme-3M
RXF 393 = tested on: RXF 393
RPMI-8226 = tested on: RPMI-8226
M14 = tested on: M14
SNB-75 = tested on: SNB-75
UACC-62 = tested on: UACC-62
HCT-15 = tested on: HCT-15
NCI-H522 = tested on: NCI-H522
OVCAR-5 = tested on: OVCAR-5

SMILES	GI50 (ACHN)	GI50 (A549)	GI50 (BT-549)	GI50 (COLO 205)	GI50 (MDA-MB-435)	GI50 (PC-3)	GI50 (HCT-116)	GI50 (UACC-257)	GI50 (SK-OV-3)	GI50 (HL-60)	GI50 (Malme-3M)	GI50 (RXF 393)	GI50 (RPMI-8226)	GI50 (M14)	GI50 (SNB-75)	GI50 (UACC-62)	GI50 (HCT-15) [µM]	GI50 (NCI-H522)	GI50 (OVCAR-5)
CCN(CC)CCCn1c(=O)c2ccccc2n2c3c(=O)n(C)c(=O)n(C)c3nc12	1.34 µM (inactive)	0.959 µM (active)	2.47 µM (inactive)	5.09 µM (inactive)	14.2 µM (inactive)	8.39 µM (inactive)	4.65 µM (inactive)	10.9 µM (inactive)	3.37 µM (inactive)	1.58 µM (inactive)	8.99 µM (inactive)	16 µM (inactive)	4.66 µM (inactive)	12.3 µM (inactive)	5.92 µM (inactive)	4.3 µM (inactive)	5.83	5.74 µM (inactive)	12.1 µM (inactive)
COC(=O)C1=CN(C2CCCCC2)C2(c3ccccc3)c3ccccc3C(=O)OC(=O)C12 (stereo not drawn)	> 100 µM (inactive)	95.5 µM (inactive)	> 100 µM (inactive)	72.8 µM (inactive)	46.5 µM (inactive)	71.6 µM (inactive)	64.9 µM (inactive)	49.2 µM (inactive)	> 100 µM (inactive)	15.2 µM (inactive)	> 100 µM (inactive)	23 µM (inactive)		> 100 µM (inactive)	> 100 µM (inactive)		> 100	> 100 µM (inactive)	> 100 µM (inactive)
CN(C)c1ccc(C(=NNC(=O)c2cc3ccccc3[nH]2)c2ccc(N(C)C)cc2)cc1	1.1 µM (active)	0.637 µM (active)	3.69 µM (inactive)	0.305 µM (active)	0.024 µM (active)	0.598 µM (active)	0.422 µM (active)	4.04 µM (inactive)	1.62 µM (inactive)	0.26 µM (active)		1.15 µM (inactive)	0.321 µM (active)	0.185 µM (active)	0.632 µM (active)	0.409 µM (active)	0.156	0.275 µM (active)	0.94 µM (active)
O=c1[nH]c2cc3cccnc3c(Cl)c2nc1CBr	7.4 µM (inactive)	19.3 µM (inactive)	26.5 µM (inactive)	13.8 µM (inactive)	16 µM (inactive)	15.7 µM (inactive)	11.7 µM (inactive)	18.7 µM (inactive)	26 µM (inactive)	20.3 µM (inactive)	23.1 µM (inactive)	17.7 µM (inactive)	6.05 µM (inactive)	13.5 µM (inactive)		12.4 µM (inactive)	3.08	11 µM (inactive)	20.3 µM (inactive)
COc1cc(CNc2nc3ccccc3nc2C(=O)O)cc(OC)c1OC	> 100 µM (inactive)	> 100 µM (inactive)	> 100 µM (inactive)	> 100 µM (inactive)	> 100 µM (inactive)	> 100 µM (inactive)	> 100 µM (inactive)	> 100 µM (inactive)	69.8 µM (inactive)	> 100 µM (inactive)	> 100 µM (inactive)	94 µM (inactive)	> 100 µM (inactive)		76.7 µM (inactive)	74 µM (inactive)	> 100	71.9 µM (inactive)	> 100 µM (inactive)
Cn1c(-c2ccc(/N=N/Nc3ccc(-c4n[nH]c(=S)n4C)cc3)cc2)n[nH]c1=S	1.99 µM (inactive)	> 100 µM (inactive)	3.9 µM (inactive)	56 µM (inactive)	> 100 µM (inactive)	> 100 µM (inactive)	25.7 µM (inactive)	> 100 µM (inactive)	20.2 µM (inactive)	4.6 µM (inactive)	> 100 µM (inactive)	11.6 µM (inactive)	2.79 µM (inactive)	8.89 µM (inactive)	16 µM (inactive)		> 100	4.05 µM (inactive)	> 100 µM (inactive)
